Values of other authors, collected in US6368586B1, “Methods and compositions for enhancing the bioadhesive properties of polymers” (Brown University Research Foundation, priority 1996, dated 2002).
Read-outs that look alike come from different tables or passages of the source.

Row | Acid Ionization Constants (pKa at 25° C.) for Aqua Ions | Acid Ionization Constants (pKa at 25° C.) for Aqua Ions (listed as Fe^3+) | Compound | Acid Ionization Constants (pKa at 25° C.) for Aqua Ions (listed as Ni^3+)
1 | 11.4 |  | [Mg+2] [Mg^2+] | 
2 | 4.9 |  | [Al+3] [Al^3+] | 

More lines, now with the values behind:

Row | Compound | Acid Ionization Constants (pKa at 25° C.) for Aqua Ions | Acid Ionization Constants (pKa at 25° C.) for Aqua Ions (listed as Fe^3+) | Acid Ionization Constants (pKa at 25° C.) for Aqua Ions (listed as Ni^3+)
3 | [Cu+2] [Cu^2+] | 8.0 |  | 
4 | [Fe+2] [Fe^2+] | 8.3 | 2.2 | 
5 | [Ca+2] [Ca^2+] | 12.6 |  | 
6 | [Ba+2] [Ba^2+] | 13.2 |  | 
7 | [Ni+2] [Ni^2+] | 10.6 |  | 9.7
